Reference: patent US10870638B2, “Pyridazinone compound or its salt, and herbicide containing it” (ISHIHARA SANGYO KAISHA, LTD., priority 2016, dated 2020)

Tests used:
Format in all cases: in vivo
Conditions in all cases: 14th day after application
[1] = test system: prickly sida (Sida spinosa L.); experiment: Test Example 2: soil application on the day after sowing, growth inhibition rate on 14th day
Summary of the method: (§1)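 Field soil in 1/300,000 ha pots was sown, and the next day compounds formulated as wettable powders or emulsifiable concentrates were diluted in water (1,000 L/ha) and soil-sprayed at the prescribed active ingredient rates. Growth inhibition was scored visually 14 days later, 0 (untreated) to 100 (complete kill).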

[2] = test system: soybean (Glycine max Merr.); experiment: as above
Summary of the method: as §1

[3] = test system: crabgrass (Digitaris sanquinalis L.); experiment: as above
Summary of the method: as §1

rice (Oryza sativa L.) [4] = experiment: as above
Summary of the method: as §1

[5] = test system: wheat (Triticum aestivum L.); experiment: as above
Summary of the method: as §1

[6] = test system: velvetleaf (Abutilon theophrasti MEDIC.); experiment: as above
Summary of the method: as §1

[7] = test system: redroot pigweed (Amaranthus retroflexus L.); experiment: as above
Summary of the method: as §1

[8] = test system: green foxtail (Setaria viridis L.); experiment: as above
Summary of the method: as §1

corn (Zea mays L.) [9] = experiment: as above
Summary of the method: as §1

[10] = test system: barnyardgrass (Echinochloa crus-qalli L.); experiment: as above
Summary of the method: as §1

[11] = test system: wild oat (Avena fatua L.); experiment: Test Example 1: foliar treatment, growth inhibition rate on 14th day
Summary of the method: (§2)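 Sow seeds in upland soil pots; at target leaf stage (wild oat 0.4–1.2, rice 0.2–2.7, foxtail 0.5–3.2, soybean primary leaf) spray formulated compound in water, 1,000 L/ha, 0.1 vol % surfactant. Score inhibition visually at day 14, 0–100%.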

[12] = test system: soybean (Glycine max Merr.); experiment: as above
Summary of the method: as §2

[13] = test system: italian ryegrass (Lolium multiflorum Lam.); experiment: as above
Summary of the method: (§3)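 Using a small sprayer, formulated compound in water (0.1 vol % surfactant, 1,000 L/ha) was applied to seedlings grown from seed in upland soil. Fourteen days on, growth state was observed and expressed as percent inhibition from 0 to 100.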

rice (Oryza sativa L.) [14] = experiment: as above
Summary of the method: as §2

[15] = test system: wheat (Triticum aestivum L.); experiment: as above
Summary of the method: as §3

[16] = test system: crabgrass (Digitaria sanquinalis L.); experiment: as above
Summary of the method: as §3

[17] = test system: redroot pigweed (Amaranthus retroflexus L.); experiment: as above
Summary of the method: as §3

[18] = test system: green foxtail (Setaria viridis L.); experiment: as above
Summary of the method: as §2

corn (Zea mays L.) [19] = experiment: as above
Summary of the method: as §3

[20] = test system: barnyardgrass (Echinochloa crus-qalli L.); experiment: as above
Summary of the method: as §3

[21] = active ingredient amount 31 g/ha
[22] = active ingredient amount 500 g/ha

| SMILES | Growth inhibition rate (%) Prickly sida [1, 21] | Growth inhibition rate (%) Soybean [2, 21] | Growth inhibition rate (%) Crabgrass [3, 21] | Growth inhibition rate (%) Rice (rice (Oryza sativa L.) [4]; [21]) | Growth inhibition rate (%) Wheat [5, 21] | Growth inhibition rate (%) Velvetleaf [6, 21] | Growth inhibition rate (%) Redroot pigweed [7, 21] | Growth inhibition rate (%) Green foxtail [8, 21] | Growth inhibition rate (%) Corn (corn (Zea mays L.) [9]; [21]) | Growth inhibition rate (%) Barnyardgrass [10, 21] | Growth inhibition rate (%) Wild oat [11, 21] | Growth inhibition rate (%) Soybean [12, 21] | Growth inhibition rate (%) Italian ryegrass [13, 21] | Growth inhibition rate (%) Rice (rice (Oryza sativa L.) [14]; [21]) | Growth inhibition rate (%) Wheat [15, 21] | Growth inhibition rate (%) Crabgrass [16, 21] | Growth inhibition rate (%) Redroot pigweed [17, 21] | Growth inhibition rate (%) Green foxtail [18, 21] | Growth inhibition rate (%) Corn (corn (Zea mays L.) [19]; [21]) | Growth inhibition rate (%) Barnyardgrass [20, 21] | also measured |
| --- | --- | --- | --- | --- | --- | --- | --- | --- | --- | --- | --- | --- | --- | --- | --- | --- | --- | --- | --- | --- | --- |
| CC(=O)Oc1c(C)nn(C)c(=O)c1-c1cc(Oc2nc3ccccc3o2)ccc1C [Compound 2-138] | 0% | 0% | 83% | 25% | 0% | 0% | 0% | 90% | 0% | 93% | 20% | 0% | 20% | 35% | 10% | 65% | 0% | 65% | 15% | 90% |  |
| CC(=O)Oc1c(C)nn(C)c(=O)c1-c1cc(Oc2ccc3ccccc3n2)ccc1C [Compound 2-142] |  |  |  |  |  |  |  |  |  |  |  |  |  |  |  |  |  |  |  |  | Growth inhibition rate (%) Prickly sida [1, 22]: 0%; Growth inhibition rate (%) Soybean [2, 22]: 0%; Growth inhibition rate (%) Crabgrass [3, 22]: 98%; Growth inhibition rate (%) Rice (rice (Oryza sativa L.) [4]; [22]): 90%; Growth inhibition rate (%) Wheat [5, 22]: 0%; Growth inhibition rate (%) Velvetleaf [6, 22]: 0%; Growth inhibition rate (%) Redroot pigweed [7, 22]: 0%; Growth inhibition rate (%) Green foxtail [8, 22]: 93%; Growth inhibition rate (%) Corn (corn (Zea mays L.) [9]; [22]): 0%; Growth inhibition rate (%) Barnyardgrass [10, 22]: 100%; Growth inhibition rate (%) Wild oat [11, 22]: 50%; Growth inhibition rate (%) Soybean [12, 22]: 25%; Growth inhibition rate (%) Italian ryegrass [13, 22]: 0%; Growth inhibition rate (%) Rice (rice (Oryza sativa L.) [14]; [22]): 80%; Growth inhibition rate (%) Wheat [15, 22]: 50%; Growth inhibition rate (%) Crabgrass [16, 22]: 83%; Growth inhibition rate (%) Redroot pigweed [17, 22]: 0%; Growth inhibition rate (%) Green foxtail [18, 22]: 90%; Growth inhibition rate (%) Corn (corn (Zea mays L.) [19]; [22]): 20%; Growth inhibition rate (%) Barnyardgrass [20, 22]: 100% |
| CC(=O)Oc1c(C)nn(C)c(=O)c1-c1cc(Oc2cnc3ccccc3c2)ccc1C [Compound 2-146] |  |  |  |  |  |  |  |  |  |  |  |  |  |  |  |  |  |  |  |  | Growth inhibition rate (%) Prickly sida [1, 22]: 0%; Growth inhibition rate (%) Soybean [2, 22]: 0%; Growth inhibition rate (%) Crabgrass [3, 22]: 100%; Growth inhibition rate (%) Rice (rice (Oryza sativa L.) [4]; [22]): 85%; Growth inhibition rate (%) Wheat [5, 22]: 0%; Growth inhibition rate (%) Velvetleaf [6, 22]: 50%; Growth inhibition rate (%) Redroot pigweed [7, 22]: 0%; Growth inhibition rate (%) Green foxtail [8, 22]: 100%; Growth inhibition rate (%) Corn (corn (Zea mays L.) [9]; [22]): 20%; Growth inhibition rate (%) Barnyardgrass [10, 22]: 100%; Growth inhibition rate (%) Wild oat [11, 22]: 80%; Growth inhibition rate (%) Soybean [12, 22]: 10%; Growth inhibition rate (%) Italian ryegrass [13, 22]: 20%; Growth inhibition rate (%) Rice (rice (Oryza sativa L.) [14]; [22]): 75%; Growth inhibition rate (%) Wheat [15, 22]: 50%; Growth inhibition rate (%) Crabgrass [16, 22]: 95%; Growth inhibition rate (%) Redroot pigweed [17, 22]: 0%; Growth inhibition rate (%) Green foxtail [18, 22]: 95%; Growth inhibition rate (%) Corn (corn (Zea mays L.) [19]; [22]): 85%; Growth inhibition rate (%) Barnyardgrass [20, 22]: 99% |
| CCc1ccc(Oc2nc3ccc(Cl)cc3s2)cc1-c1c(O)c(C)nn(C)c1=O [Compound 2-150] | 75% | 0% | 90% | 0% | 0% | 0% | 100% | 98% | 0% | 100% | 50% | 0% | 98% | 30% | 75% | 60% | 0% | 98% | 30% | 100% |  |
| Cc1ccc(Oc2nc3ccc(F)cc3s2)cc1-c1c(O)c(C)nn(C)c1=O [Compound 2-155] | 0% | 0% | 83% | 70% | 0% | 0% | 0% | 88% | 0% | 85% | 0% | 0% | 10% | 0% | 25% | 40% | 0% | 60% | 10% | 78% |  |
| Cc1ccc(Oc2nc3ccc(Br)cc3s2)cc1-c1c(O)c(C)nn(C)c1=O [Compound 2-156] | 0% | 0% | 75% | 15% | 0% | 0% | 0% | 98% | 0% | 83% | 10% | 0% | 30% | 0% | 0% | 93% | 0% | 98% | 0% | 98% |  |
| CC(=O)Oc1c(C)nn(C)c(=O)c1-c1cc(Oc2nc3ccc(Br)cc3s2)ccc1C [Compound 2-158] | 0% | 0% | 70% | 0% | 0% | 0% | 0% | 95% | 10% | 80% | 65% | 0% | 65% | 60% | 93% | 93% | 0% | 98% | 0% | 100% |  |
| CCc1ccc(Oc2nc3ccc(Cl)cc3o2)cc1-c1c(OC(C)=O)c(C)nn(C)c1=O [Compound 2-159] | 0% | 0% | 98% | 0% | 0% | 0% | 0% | 99% | 0% | 100% | 100% | 35% | 100% | 100% | 99% | 100% | 0% | 100% | 100% | 100% |  |
| CCc1ccc(Oc2nc3ccc(Cl)cc3o2)cc1-c1c(OC(C)=O)cnn(C)c1=O [Compound 2-160] | 50% | 0% | 99% | 0% | 0% | 0% | 95% | 100% | 0% | 100% | 100% | 30% | 100% | 100% | 99% | 100% | 0% | 100% | 100% | 100% |  |
